{"source": "patent US20260364072A1", "about": "“METHODS FOR PROMOTING EXPANSION OF HUMAN CD34+ CELLS IN VIVO AND FOR PROMOTING NEURAL REGENERATION” (THE REGENTS OF THE UNIVERSITY OF CALIFORNIA, priority 2023, published 2026)", "key": {"KG-1a AML cells": {"test_system": "KG-1a AML cells", "assay": "KG-1a cell viability by flow cytometry", "assay_type": "cell-based, human", "conditions": "24 hr", "text": "(FIG. 29A) Quantification of cell viability (left panel) and splicing modulation (RFP/GFP ratios, right panel) by flow cytometry analyses of the human AML cell line (KG-1a) stably transduced with a lentiviral dual-fluorescence splicing reporter vector and treated with increasing concentrations of Rebecsinib.\nFor generation of stably transduced splicing reporter cell lines, a previously described splicing reporter construct^31 was cloned into a lentiviral vector backbone.^52 KG-1a cells were transduced with the dual-fluorescent lentiviral splicing reporter vector, treated with various concentrations of Rebecsinib (3-fold serial dilutions from 3 μM to 4 nM) for 24 hr, washed followed by DAPI staining, and analyzed by flow cytometry for cell viability and RFP/GFP fluorescence intensity. Results were from duplicate wells of each condition. Viability of cells treated with DMSO (0.5% final concentration) was set as 100%. Nonlinear regression curve fit analysis was carried out using Prism software (GraphPad) to determine ECso values for viability and mean fluorescence intensity (MFI) of RFP and GFP."}, "[1]": {"assay": "NHP single-dose toxicokinetic study", "assay_type": "in vivo, cynomolgus monkeys", "protocol": "Pre-IND PD and toxicokinetic (TK) studies (FIG. 4D) were enabled by scalable Rebecsinib synthesis^34 and development of an optimized formulation for in vivo biodistribution (5% w/v EtOH, 5% w/v Kolliphor HS15 in 0.9% Sodium Chloride). In PK studies, Rebecsinib was detectable in rat, rabbit, and non-human primate (NHP) plasma following IV bolus administration. In rat TK studies, Rebecsinib was quantifiable up to 1-hour post-dose at 1 mg/kg and up to 4 hours post-dose at 3, 5, and 8 mg/kg (FIG. 4E). […] Rebecsinib T1/2 values were 0.342, 0.447, 0.313, and 0.530 hours at 1, 3, 5, and 8 mg/kg, respectively. […] Following 3, 10, and 20 mg/kg boluses, Rebecsinib was quantifiable in plasma 1 hour post-dose and could be detected up to 8 hours post-dosing with 40 mg/kg (FIG. 4F). […] Following 3, 10, 15, and 20 mg/kg of Rebecsinib, quantifiable plasma concentrations of Rebecsinib were observed through 8 hrs post-dose (FIG. 4G).\n(FIG. 29D) Schematic diagram outlining multispecies toxicokinetic (TK) and pharmacodynamic studies in mammalian species treated in vivo with a single dose of Rebecsinib. Toxicokinetic analyses were performed in rats (n=6 per sex, per group), rabbits (n=2 per sex, per group), and non-human primates (NHPs, n=1 per sex, per group) and pharmacodynamic splice isoform quantification studies were performed in peripheral blood mononuclear cells (PBMCs) from NHP.\n(FIG. 29G, FIG. 29H) For in vivo TK and complementary pharmacodynamic studies, NHPs were given a single injection of Rebecsinib at 3-20 mg/kg, or vehicle control, and blood samples were drawn at regular intervals to determine plasma concentrations (FIG. 29G) of the compound along with splice isoform biomarker assays to quantify MCL1 exon skipping in PBMCs isolated from treated animals (FIG. 29H, n=2 animals per group).\nSingle-dose TK studies were performed in Sprague Dawley rats (Charles River Labs, South San Francisco, CA), New Zealand white rabbits (BASi/Inotiv, West Lafayette, IN), and cynomolgus monkeys (BASi/Inotiv). Rat and rabbit studies included toxicology analyses, quantification of plasma levels of Rebecsinib, and necropsies to evaluate organ integrity after treatment. For NHP studies, health and ophthalmological evaluations were performed before and after dosing with Rebecsinib, and blood samples were collected for quantification of plasma levels of Rebecsinib and biomarker studies in PBMCs from treated and control animals. All monkeys were returned to the animal colony after the end of the observation period. Toxicokinetic values including mean plasma concentrations and t1/2 values were calculated according to CRO-approved protocols (Charles River and BASi)."}, "[2]": {"test_system": "ADAR1p150 splice isoform; leukemia stem cells", "conditions": "cited from earlier work"}, "MCL1 transcripts": {"test_system": "MCL1 transcripts", "assay": "MCL1-S/L ratio by splice isoform-specific qRT-PCR in primary CD34+ MF HPC and LSC", "assay_type": "cell-based, human", "conditions": "0.1 μM, compared with vehicle, short-term culture, no stroma"}}, "data": [{"molecule": "CC[C@H](OC)[C@@H](C)[C@H]1O[C@@H]1[C@@H](O)[C@H](C)/C=C/C=C(\\C)[C@H]1OC(=O)C[C@H](O)CC[C@@](C)(O)[C@@H](OC(C)=O)/C=C/[C@@H]1C", "note": "[Rebecsinib]", "values": [{"measurement": "KG-1a AML cell survival", "setting": "KG-1a AML cells", "result": "impaired CD34^+ KG-1a AML cell survival"}, {"measurement": "IC50", "setting": "KG-1a AML cells; Homo sapiens, CD34+ KG-1a AML cell survival and RFP to GFP reporter expression", "result": "~100", "unit": "nM"}, {"measurement": "tolerability", "setting": "[1]", "result": "favorable tolerability"}, {"measurement": "diarrhea", "setting": "[1]; 20 mg/kg, resolved within 24 hours with no treatment and no sequelae", "result": "one female NHP in the 20 mg/kg treatment group developed diarrhea"}, {"measurement": "quantifiable plasma concentrations through time post-dose", "setting": "[1]; IV bolus, 3, 10, 15, and 20 mg/kg", "result": "up to 8 hrs"}, {"measurement": "peak (Cmax) levels, male vs female", "setting": "[1]; IV bolus, all dose levels", "result": "comparable between male and females"}, {"measurement": "total (AUClast) levels, male vs female", "setting": "[1]; IV bolus, all dose levels", "result": "comparable between male and females"}, {"measurement": "half-life", "setting": "[1]; cynomolgus monkey, plasma, IV bolus, read-out: half-life (t1/2)", "result": "37.2 to 66", "unit": "min"}, {"measurement": "activation of the interferon-inducible ADAR1p150 splice isoform", "setting": "[2]", "result": "inhibit activation of the interferon-inducible ADAR1p150 splice isoform"}, {"measurement": "malignant splice isoform switching", "setting": "[2]", "result": "reverse malignant splice isoform switching"}, {"measurement": "leukemia stem cell (LSC) maintenance", "setting": "[2]; in vitro and in preclinical patient-derived AML mouse models", "result": "significantly reduce leukemia stem cell (LSC) maintenance"}, {"measurement": "MCL1-S/L transcript ratio", "setting": "MCL1 transcripts", "result": "elevated expression of pro-apoptotic MCL1-short (S) compared with anti-apoptotic MCL1-long (L) transcripts"}]}]}
